In the kinase profiling compilation of Christmann-Franck et al. (2016):
“And” between values parts separate entries of the source, which are not always exact repeats. Equal entries are not always repeated.

Columns and labels:
Assay in all cases: radiometric filter-binding kinase assay, Kinase HotSpot
ADRBK1 (human) = ADRBK1 (human) (UniProt P25098); conditions: compound 0.5 µM; ATP 10 µM
AKT2 (human) = AKT2 (human) (UniProt P31751); conditions: compound 0.5 µM; ATP 10 µM
AURKA (human) = AURKA (human) (UniProt O14965); conditions: compound 0.5 µM; ATP 10 µM
AURKA (human), sequence (O14965 whole entry, looked up): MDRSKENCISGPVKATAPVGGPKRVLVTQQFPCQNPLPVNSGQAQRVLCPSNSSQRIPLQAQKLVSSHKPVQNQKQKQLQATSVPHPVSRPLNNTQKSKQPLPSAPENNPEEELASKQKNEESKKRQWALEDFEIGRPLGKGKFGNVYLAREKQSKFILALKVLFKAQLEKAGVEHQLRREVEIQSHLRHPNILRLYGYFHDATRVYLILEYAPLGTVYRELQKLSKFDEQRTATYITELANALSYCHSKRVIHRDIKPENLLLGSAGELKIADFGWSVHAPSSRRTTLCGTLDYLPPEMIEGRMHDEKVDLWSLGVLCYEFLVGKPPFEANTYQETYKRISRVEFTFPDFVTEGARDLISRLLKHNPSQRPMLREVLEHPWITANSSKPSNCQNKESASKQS

CAMK1D (human) = CAMK1D (human) (UniProt Q8IU85); conditions: compound 0.5 µM; ATP 10 µM
CAMK4 (human) = CAMK4 (human) (UniProt Q16566); conditions: compound 0.5 µM; ATP 10 µM
CAMKK1 (human) = CAMKK1 (human) (UniProt Q8N5S9); conditions: compound 0.5 µM; ATP 10 µM
CDK4 CCND3 (human) = CDK4 CCND3 (human) (UniProt P30281+P11802); conditions: compound 0.5 µM
CSF1R (human) = CSF1R (human) (UniProt P07333); conditions: compound 0.5 µM; ATP 10 µM
DYRK4 (human) = DYRK4 (human) (UniProt Q9NR20); conditions: compound 0.5 µM; ATP 10 µM
EPHA3 (human) = EPHA3 (human) (UniProt P29320); conditions: compound 0.5 µM; ATP 10 µM
EPHA3 (human), sequence (P29320 whole entry, looked up): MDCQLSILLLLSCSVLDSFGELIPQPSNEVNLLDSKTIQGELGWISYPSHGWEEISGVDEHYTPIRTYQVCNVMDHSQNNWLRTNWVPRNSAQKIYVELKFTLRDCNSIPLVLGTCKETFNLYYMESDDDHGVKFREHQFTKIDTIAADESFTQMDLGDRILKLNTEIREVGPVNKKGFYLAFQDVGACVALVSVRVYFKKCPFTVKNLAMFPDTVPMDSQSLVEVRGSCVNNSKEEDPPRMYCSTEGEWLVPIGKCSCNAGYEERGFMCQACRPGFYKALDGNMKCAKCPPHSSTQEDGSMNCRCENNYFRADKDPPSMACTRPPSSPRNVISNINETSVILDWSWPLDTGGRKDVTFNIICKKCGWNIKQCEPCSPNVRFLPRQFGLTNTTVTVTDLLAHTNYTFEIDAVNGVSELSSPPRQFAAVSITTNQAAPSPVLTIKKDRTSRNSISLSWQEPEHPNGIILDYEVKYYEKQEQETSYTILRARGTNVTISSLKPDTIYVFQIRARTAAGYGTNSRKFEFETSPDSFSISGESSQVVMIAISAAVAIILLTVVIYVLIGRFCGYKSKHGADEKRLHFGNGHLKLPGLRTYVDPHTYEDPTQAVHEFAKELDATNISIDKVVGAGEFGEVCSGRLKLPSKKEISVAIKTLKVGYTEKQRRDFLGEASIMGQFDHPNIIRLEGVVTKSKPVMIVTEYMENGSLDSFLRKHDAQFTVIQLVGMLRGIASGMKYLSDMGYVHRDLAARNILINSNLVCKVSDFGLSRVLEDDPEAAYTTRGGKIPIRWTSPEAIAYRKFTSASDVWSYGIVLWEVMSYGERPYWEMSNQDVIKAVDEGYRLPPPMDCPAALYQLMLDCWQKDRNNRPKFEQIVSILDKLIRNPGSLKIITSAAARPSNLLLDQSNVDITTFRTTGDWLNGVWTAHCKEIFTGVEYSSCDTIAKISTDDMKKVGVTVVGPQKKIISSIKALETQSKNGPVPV

EPHA5 (human) = EPHA5 (human) (UniProt P54756); conditions: compound 0.5 µM; ATP 10 µM
EPHA5 (human), sequence (P54756 whole entry, looked up): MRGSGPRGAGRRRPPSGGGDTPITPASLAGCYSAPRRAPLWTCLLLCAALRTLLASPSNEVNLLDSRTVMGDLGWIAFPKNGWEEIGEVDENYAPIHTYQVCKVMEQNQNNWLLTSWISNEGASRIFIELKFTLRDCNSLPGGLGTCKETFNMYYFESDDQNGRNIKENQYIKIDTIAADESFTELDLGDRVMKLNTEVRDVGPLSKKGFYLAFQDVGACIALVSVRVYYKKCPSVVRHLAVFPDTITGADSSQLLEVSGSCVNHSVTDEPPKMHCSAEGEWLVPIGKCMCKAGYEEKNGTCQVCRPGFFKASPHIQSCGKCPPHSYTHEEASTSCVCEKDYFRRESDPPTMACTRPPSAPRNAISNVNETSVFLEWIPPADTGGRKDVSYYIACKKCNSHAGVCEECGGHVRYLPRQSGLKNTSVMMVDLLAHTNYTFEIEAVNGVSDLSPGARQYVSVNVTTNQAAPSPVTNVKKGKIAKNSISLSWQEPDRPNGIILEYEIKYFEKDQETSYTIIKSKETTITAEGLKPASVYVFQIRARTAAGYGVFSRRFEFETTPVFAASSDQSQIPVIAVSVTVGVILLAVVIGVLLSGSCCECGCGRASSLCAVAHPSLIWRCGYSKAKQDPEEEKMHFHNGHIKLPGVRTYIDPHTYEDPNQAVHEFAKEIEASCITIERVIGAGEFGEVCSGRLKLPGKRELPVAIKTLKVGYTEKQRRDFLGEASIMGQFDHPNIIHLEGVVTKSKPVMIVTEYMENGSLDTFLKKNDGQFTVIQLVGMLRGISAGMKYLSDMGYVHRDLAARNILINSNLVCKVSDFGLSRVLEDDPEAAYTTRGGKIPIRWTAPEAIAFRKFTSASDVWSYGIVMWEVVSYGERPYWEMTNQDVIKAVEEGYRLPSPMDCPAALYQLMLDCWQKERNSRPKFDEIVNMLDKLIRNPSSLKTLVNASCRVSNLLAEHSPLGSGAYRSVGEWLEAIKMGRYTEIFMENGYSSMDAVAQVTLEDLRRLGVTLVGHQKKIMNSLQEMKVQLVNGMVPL

EPHB1 (human) = EPHB1 (human) (UniProt P54762); conditions: compound 0.5 µM; ATP 10 µM
EPHB1 (human), sequence (P54762 whole entry, looked up): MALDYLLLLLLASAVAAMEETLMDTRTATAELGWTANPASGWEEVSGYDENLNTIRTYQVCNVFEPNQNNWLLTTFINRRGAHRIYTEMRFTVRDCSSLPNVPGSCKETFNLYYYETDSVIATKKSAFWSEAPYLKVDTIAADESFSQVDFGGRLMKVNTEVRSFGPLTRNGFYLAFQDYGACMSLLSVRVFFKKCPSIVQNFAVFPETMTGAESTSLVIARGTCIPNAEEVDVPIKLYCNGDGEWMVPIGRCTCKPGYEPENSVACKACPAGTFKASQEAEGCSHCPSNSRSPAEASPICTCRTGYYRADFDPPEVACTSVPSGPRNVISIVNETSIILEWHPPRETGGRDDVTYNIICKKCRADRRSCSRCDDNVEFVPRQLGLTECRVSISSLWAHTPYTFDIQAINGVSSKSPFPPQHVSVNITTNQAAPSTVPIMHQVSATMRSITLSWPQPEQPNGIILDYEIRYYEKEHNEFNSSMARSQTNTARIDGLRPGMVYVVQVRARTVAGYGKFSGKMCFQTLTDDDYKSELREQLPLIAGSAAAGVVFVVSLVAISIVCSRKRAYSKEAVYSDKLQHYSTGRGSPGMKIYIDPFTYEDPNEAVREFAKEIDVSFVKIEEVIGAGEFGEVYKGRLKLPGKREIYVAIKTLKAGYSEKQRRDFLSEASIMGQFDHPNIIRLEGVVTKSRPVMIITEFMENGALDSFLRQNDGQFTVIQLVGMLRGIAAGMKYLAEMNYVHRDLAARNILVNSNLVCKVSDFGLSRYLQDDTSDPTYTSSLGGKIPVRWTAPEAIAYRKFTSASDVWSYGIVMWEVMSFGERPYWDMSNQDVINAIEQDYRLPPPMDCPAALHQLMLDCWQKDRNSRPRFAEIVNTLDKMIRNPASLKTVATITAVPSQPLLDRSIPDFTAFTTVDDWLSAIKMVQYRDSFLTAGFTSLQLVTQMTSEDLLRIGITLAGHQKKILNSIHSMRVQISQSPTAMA

FRK (human) = FRK (human) (UniProt P42685); conditions: compound 0.5 µM; ATP 10 µM
FYN (human) = FYN (human) (UniProt P06241); conditions: compound 0.5 µM; ATP 10 µM
GRK5 (human) = GRK5 (human) (UniProt P34947); conditions: compound 0.5 µM; ATP 10 µM
HCK (human) = HCK (human) (UniProt P08631); conditions: compound 0.5 µM; ATP 10 µM
HIPK1 (human) = HIPK1 (human) (UniProt Q86Z02); conditions: compound 0.5 µM; ATP 10 µM
HIPK2 (human) = HIPK2 (human) (UniProt Q9H2X6); conditions: compound 0.5 µM; ATP 10 µM
IKBKB (human) = IKBKB (human) (UniProt O14920); conditions: compound 0.5 µM; ATP 10 µM
LYN (human) = LYN (human) (UniProt P07948); conditions: compound 0.5 µM; ATP 10 µM
MAPK13 (human) = MAPK13 (human) (UniProt O15264); conditions: compound 0.5 µM; ATP 10 µM
MARK4 (human) = MARK4 (human) (UniProt Q96L34); conditions: compound 0.5 µM; ATP 10 µM
MATK (human) = MATK (human) (UniProt P42679); conditions: compound 0.5 µM; ATP 10 µM
MATK (human), sequence (P42679 whole entry, looked up): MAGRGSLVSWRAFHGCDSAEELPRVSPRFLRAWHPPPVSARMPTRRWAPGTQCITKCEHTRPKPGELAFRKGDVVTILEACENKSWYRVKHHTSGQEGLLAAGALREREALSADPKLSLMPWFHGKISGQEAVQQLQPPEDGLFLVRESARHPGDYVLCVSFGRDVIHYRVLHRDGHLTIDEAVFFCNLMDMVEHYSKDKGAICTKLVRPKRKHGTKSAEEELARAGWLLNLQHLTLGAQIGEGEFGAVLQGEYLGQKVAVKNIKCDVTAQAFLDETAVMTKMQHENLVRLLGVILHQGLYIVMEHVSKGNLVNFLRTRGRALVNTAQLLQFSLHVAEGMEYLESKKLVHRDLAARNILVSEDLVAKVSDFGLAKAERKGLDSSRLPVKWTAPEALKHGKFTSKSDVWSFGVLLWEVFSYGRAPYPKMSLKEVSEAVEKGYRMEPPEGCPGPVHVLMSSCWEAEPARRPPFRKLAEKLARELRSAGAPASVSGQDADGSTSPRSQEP

MELK (human) = MELK (human) (UniProt Q14680); conditions: compound 0.5 µM; ATP 10 µM
MYLK (human) = MYLK (human) (UniProt Q15746); conditions: compound 0.5 µM
NEK11 (human) = NEK11 (human) (UniProt Q8NG66); conditions: compound 0.5 µM; ATP 10 µM
NEK3 (human) = NEK3 (human) (UniProt P51956); conditions: compound 0.5 µM; ATP 10 µM
NEK3 (human), sequence (P51956 whole entry, looked up): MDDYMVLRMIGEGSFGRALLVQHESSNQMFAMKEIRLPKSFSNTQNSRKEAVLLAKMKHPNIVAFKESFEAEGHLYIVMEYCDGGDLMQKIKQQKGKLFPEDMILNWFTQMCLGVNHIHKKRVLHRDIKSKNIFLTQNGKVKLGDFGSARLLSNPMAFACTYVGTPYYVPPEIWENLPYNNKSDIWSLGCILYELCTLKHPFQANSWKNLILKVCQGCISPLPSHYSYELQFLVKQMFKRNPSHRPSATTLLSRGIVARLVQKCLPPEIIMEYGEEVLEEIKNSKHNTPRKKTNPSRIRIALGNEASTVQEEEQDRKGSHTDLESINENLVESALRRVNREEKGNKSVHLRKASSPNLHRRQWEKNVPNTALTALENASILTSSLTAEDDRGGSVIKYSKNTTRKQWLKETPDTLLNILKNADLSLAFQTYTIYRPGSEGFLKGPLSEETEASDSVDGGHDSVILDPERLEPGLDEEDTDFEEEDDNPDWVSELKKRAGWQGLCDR

NUAK2 (human) = NUAK2 (human) (UniProt Q9H093); conditions: compound 0.5 µM; ATP 10 µM
OXSR1 (human) = OXSR1 (human) (UniProt O95747); conditions: compound 0.5 µM; ATP 10 µM
PDGFRB (human) = PDGFRB (human) (UniProt P09619); conditions: compound 0.5 µM; ATP 10 µM
PIM3 (human) = PIM3 (human) (UniProt Q86V86); conditions: compound 0.5 µM; ATP 10 µM
PKN2 (human) = PKN2 (human) (UniProt Q16513); conditions: compound 0.5 µM; ATP 10 µM
PRKCB1 (human) = PRKCB1 (human) (UniProt P05771); conditions: compound 0.5 µM; ATP 10 µM
PTK2 (human) = PTK2 (human) (UniProt Q05397); conditions: compound 0.5 µM; ATP 10 µM
RPS6KB1 (human) = RPS6KB1 (human) (UniProt P23443); conditions: compound 0.5 µM; ATP 10 µM
SLK (human) = SLK (human) (UniProt Q9H2G2); conditions: compound 0.5 µM; ATP 10 µM
STK16 (human) = STK16 (human) (UniProt O75716); conditions: compound 0.5 µM; ATP 10 µM
TBK1 (human) = TBK1 (human) (UniProt Q9UHD2); conditions: compound 0.5 µM; ATP 10 µM
TEC (human) = TEC (human) (UniProt P42680); conditions: compound 0.5 µM; ATP 10 µM
TEC (human), sequence (P42680 whole entry, looked up): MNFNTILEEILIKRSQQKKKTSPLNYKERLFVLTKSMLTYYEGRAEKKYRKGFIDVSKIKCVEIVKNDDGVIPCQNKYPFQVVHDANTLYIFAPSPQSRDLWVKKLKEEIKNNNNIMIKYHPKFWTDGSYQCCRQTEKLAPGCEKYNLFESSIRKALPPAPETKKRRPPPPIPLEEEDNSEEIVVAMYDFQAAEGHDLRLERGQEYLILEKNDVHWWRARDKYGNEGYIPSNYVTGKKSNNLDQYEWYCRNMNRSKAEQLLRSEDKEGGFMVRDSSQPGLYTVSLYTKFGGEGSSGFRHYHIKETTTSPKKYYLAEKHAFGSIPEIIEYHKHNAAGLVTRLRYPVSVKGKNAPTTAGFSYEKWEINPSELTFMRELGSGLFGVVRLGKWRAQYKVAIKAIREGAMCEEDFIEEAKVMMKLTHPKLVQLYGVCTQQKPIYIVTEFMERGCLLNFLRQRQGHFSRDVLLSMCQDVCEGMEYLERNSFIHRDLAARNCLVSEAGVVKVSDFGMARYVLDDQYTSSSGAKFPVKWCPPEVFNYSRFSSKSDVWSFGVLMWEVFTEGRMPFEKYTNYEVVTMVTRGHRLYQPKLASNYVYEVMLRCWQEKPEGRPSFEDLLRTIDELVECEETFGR

TGFBR2 (human) = TGFBR2 (human) (UniProt P37173); conditions: compound 0.5 µM; ATP 10 µM
TNK2 (human) = TNK2 (human) (UniProt Q07912); conditions: compound 0.5 µM; ATP 10 µM
TTK (human) = TTK (human) (UniProt P33981); conditions: compound 0.5 µM; ATP 10 µM

CCCCc1c(-c2ccc(O)cc2)[nH]c2nccnc12
residual activity (ADRBK1 (human)): 76.5%
residual activity (AKT2 (human)): 95.3%
residual activity (AURKA (human)): 24.5%
residual activity (CAMK1D (human)): 96.9%
residual activity (CAMK4 (human)): 93.9%
residual activity (CAMKK1 (human)): 89.7%
residual activity (CDK4 CCND3 (human); ATP 10 µM): 71%
residual activity (CSF1R (human)): 38.4%
residual activity (DYRK4 (human)): 99.7%
residual activity (EPHA3 (human)): 95%
residual activity (EPHA5 (human)): 96.4%
residual activity (EPHB1 (human)): 78%
residual activity (FRK (human)): 87.6%
residual activity (FYN (human)): 62.1%
residual activity (GRK5 (human)): 104%
residual activity (HCK (human)): 91.1%
residual activity (HIPK1 (human)): 97.6%
residual activity (HIPK2 (human)): 88.5%
residual activity (IKBKB (human)): 103%
residual activity (LYN (human)): 106% and 87.3%
residual activity (MAPK13 (human)): 101%
residual activity (MARK4 (human)): 84.6%
residual activity (MATK (human)): 109%
residual activity (MELK (human)): 82.5%
residual activity (MYLK (human); ATP 10 µM): 101%
residual activity (NEK11 (human)): 92.5%
residual activity (NEK3 (human)): 103%
residual activity (NUAK2 (human)): 64.8%
residual activity (OXSR1 (human)): 95.5%
residual activity (PDGFRB (human)): 91.4%
residual activity (PIM3 (human)): 72.8%
residual activity (PKN2 (human)): 82.4%
residual activity (PRKCB1 (human)): 95.5%
residual activity (PTK2 (human)): 83.1%
residual activity (RPS6KB1 (human)): 105%
residual activity (SLK (human)): 77.3%
residual activity (STK16 (human)): 55.4%
residual activity (TBK1 (human)): 82.1%
residual activity (TEC (human)): 87.3%
residual activity (TGFBR2 (human)): 55%
residual activity (TNK2 (human)): 49.9%
residual activity (TTK (human)): 91.6%

O=c1[nH]c2ccccc2n1C1CCN(Cc2ccc(-c3nc4cc5[nH]cnc5cc4nc3-c3ccccc3)cc2)CC1
residual activity (ADRBK1 (human)): 95.3%
residual activity (AKT2 (human)): 96.8%
residual activity (AURKA (human)): 99%
residual activity (CAMK1D (human)): 107%
residual activity (CAMK4 (human)): 101%
residual activity (CAMKK1 (human)): 117%
residual activity (CDK4 CCND3 (human)): 99.7%
residual activity (CSF1R (human)): 97%
residual activity (DYRK4 (human)): 109%
residual activity (EPHA3 (human)): 71.9%
residual activity (EPHA5 (human)): 102%
residual activity (EPHB1 (human)): 104%
residual activity (FRK (human)): 102%
residual activity (FYN (human)): 101%
residual activity (GRK5 (human)): 109%
residual activity (HCK (human)): 99.6%
residual activity (HIPK1 (human)): 106%
residual activity (HIPK2 (human)): 110%
residual activity (IKBKB (human)): 101%
residual activity (LYN (human)): 102% and 116%
residual activity (MAPK13 (human)): 102%
residual activity (MARK4 (human)): 102%
residual activity (MATK (human)): 102%
residual activity (MELK (human)): 110%
residual activity (MYLK (human)): 104%
residual activity (NEK11 (human)): 86.4%
residual activity (NEK3 (human)): 97.2%
residual activity (NUAK2 (human)): 90.4%
residual activity (OXSR1 (human)): 102%
residual activity (PDGFRB (human)): 102%
residual activity (PIM3 (human)): 106%
residual activity (PKN2 (human)): 73.2%
residual activity (PRKCB1 (human)): 108%
residual activity (PTK2 (human)): 108%
residual activity (RPS6KB1 (human)): 101%
residual activity (SLK (human)): 97.7%
residual activity (STK16 (human)): 99.5%
residual activity (TBK1 (human)): 92.7%
residual activity (TEC (human)): 162%
residual activity (TGFBR2 (human)): 95.5%
residual activity (TNK2 (human)): 92.3%
residual activity (TTK (human)): 104%

Cc1cc(Nc2nc(-c3ccccc3)nc3ccccc23)n[nH]1
residual activity (ADRBK1 (human)): 106%
residual activity (AKT2 (human)): 127%
residual activity (AURKA (human)): 19.8%
residual activity (CAMK1D (human)): 85.4%
residual activity (CAMK4 (human)): 94.1%
residual activity (CAMKK1 (human)): 90.7%
residual activity (CDK4 CCND3 (human); ATP 10 µM): 94.4%
residual activity (CSF1R (human)): 33.1%
residual activity (DYRK4 (human)): 103%
residual activity (EPHA3 (human)): 88.9%
residual activity (EPHA5 (human)): 90.6%
residual activity (EPHB1 (human)): 93.1%
residual activity (FRK (human)): 72.5%
residual activity (FYN (human)): 40%
residual activity (GRK5 (human)): 119%
residual activity (HCK (human)): 77.3%
residual activity (HIPK1 (human)): 96.3%
residual activity (HIPK2 (human)): 101%
residual activity (IKBKB (human)): 69.8%
residual activity (LYN (human)): 79.9% and 88.7%
residual activity (MAPK13 (human)): 106%
residual activity (MARK4 (human)): 83.5%
residual activity (MATK (human)): 96.1%
residual activity (MELK (human)): 69.1%
residual activity (MYLK (human); ATP 10 µM): 60.2%
residual activity (NEK11 (human)): 105%
residual activity (NEK3 (human)): 101%
residual activity (NUAK2 (human)): 71.1%
residual activity (OXSR1 (human)): 98.1%
residual activity (PDGFRB (human)): 55.4%
residual activity (PIM3 (human)): 130%
residual activity (PKN2 (human)): 87.2%
residual activity (PRKCB1 (human)): 99.9%
residual activity (PTK2 (human)): 59.9%
residual activity (RPS6KB1 (human)): 60.4%
residual activity (SLK (human)): 42.2%
residual activity (STK16 (human)): 24.7%
residual activity (TBK1 (human)): 53.8%
residual activity (TEC (human)): 106%
residual activity (TGFBR2 (human)): 116%
residual activity (TNK2 (human)): 10.8%
residual activity (TTK (human)): 102%
